According to patent US20240270762A1, “PENICILLIN-BINDING PROTEIN INHIBITORS” (priority 2021, published 2024):
Values after ≈ are worked out from the molar mass of the structure shown.

Experiments:
[1] = tested on: B. humptydooensis ATCC BAA-2767; assay: microbe, parasite or virus in culture; format: cell-based; conditions: Burkholderia humptydooensis, ATCCBAA2767, read-out: Minimum inhibitory concentration (MIC), B. humptydooensis ATCC BAA-2767
P. aeruginosa ATCC 27853 = assay: microbe, parasite or virus in culture; format: cell-based; conditions: Pseudomonas aeruginosa, ATCC27853, read-out: Minimum inhibitory concentration, P. aeruginosa ATCC 27853
A. baumannii CDC-0083 = assay: microbe, parasite or virus in culture; format: cell-based; conditions: Acinetobacter baumannii, CDC0083, read-out: MIC, A. baumannii CDC-0083
[2] = biological target: T1, PBP3 from Escherichia coli (K-12) (Escherichia coli, UniProt P0AD68); assay: Bocillin-FL fluorescence polarization competition binding, E. coli PBP3
T1 construct: made in house
Outline: (§1)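 Purified PBPs pre-incubated with inhibitor (E. coli PBP3 1.5 μM, 30 min; P. aeruginosa PBP3 0.75 μM, A. baumannii PBP1a 1 μM and PBP3 0.2 μM, 15 min), then Bocillin-FL 0.1 μM (0.05 μM for PBP1a) added; FP read up to 60 min. EC50 = concentration halving bound Bocillin-FL.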

P. aeruginosa CDC-0095 = assay: microbe, parasite or virus in culture; format: cell-based; conditions: Pseudomonas aeruginosa, CDC0095, read-out: Minimum inhibitory concentration, P. aeruginosa CDC-0095
P. aeruginosa CDC-0110 = assay: microbe, parasite or virus in culture; format: cell-based; conditions: Pseudomonas aeruginosa, CDC0110, read-out: Minimum inhibitory concentration, P. aeruginosa CDC-0110
N. gonorrhoeae WHO X = assay: Liquid broth MIC in Fastidious broth; conditions: Neisseria gonorrhoeae, read-out: Minimum Inhibitory Concentration, WHO X
[3] = tested on: B. thailandensis ATCC 700388; assay: microbe, parasite or virus in culture; format: cell-based; conditions: Burkholderia thailandensis, ATCC700388, read-out: Minimum inhibitory concentration (MIC), B. thailandensis ATCC 700388
N. gonorrhoeae WHO G = assay: Liquid broth MIC in Fastidious broth; conditions: Neisseria gonorrhoeae, read-out: Minimum Inhibitory Concentration, WHO G
[4] = tested on: N. gonorrhoeae ATCC 49226; assay: Liquid broth MIC in Fastidious broth; conditions: Neisseria gonorrhoeae, ATCC49226, read-out: Minimum Inhibitory Concentration, ATCC 49226
P. aeruginosa CDC-0054 = assay: microbe, parasite or virus in culture; format: cell-based; conditions: Pseudomonas aeruginosa, CDC0054, read-out: Minimum inhibitory concentration, P. aeruginosa CDC-0054
[5] = biological target: T2, PBP3 from Pseudomonas aeruginosa (PAO1) (Pseudomonas aeruginosa, UniProt G3XD46); assay: Bocillin-FL fluorescence polarization competition binding, P. aeruginosa PBP3; conditions: Binding affinity to P. aeruginosa PBP3; fluorescence polarization competition binding assay using Bocillin-FL; read-out: P. aeruginosa PBP3 Potency
T2 construct: made in house
Outline: as §1

N. gonorrhoeae CDC-0197 = assay: Liquid broth MIC in Fastidious broth; conditions: Neisseria gonorrhoeae, CDC0197, read-out: Minimum Inhibitory Concentration, CDC-0197
Experimental: ATCC 49226, FA1090, MS11, WHO G, WHO L, and WHO M produce wild type or wild-type like PBP2. WHO K, WHO X, WHO Z, WHO Q, and CDC-0197 produce mosaic PBP2. Liquid broth-based assays were used for antibacterial testing of PBP inhibitors in Neisseria gonorrhoeae. Briefly, cryo-preserved bacterial cultures of clinical strains were streaked for isolation on Chocolate Agar (72 g/L (2×) GC Agar Base (BD #228950) and 2% (2×) Hemoglobin was autoclaved at 121° C. for 20 minutes to sterilize. Once cooled to ˜50° C. the 2×GC Agar Base and 2× Hemoglobin solutions are combined and 1% IsoVitaleX Enrichment (BD #211876) was added to the solution). Strains were incubated at 36° C. and 5% CO2 to allow growth of colonies, 24 hours before inoculum preparation. 2-fold serial dilutions of test compounds were conducted in a 96 well plate with a final volume of 75 μL per well at 2-fold the final desired concentration in Fastidious broth (Remel #R07664). For preparation of assay inoculum, a direct suspension was prepared by aseptically swabbing 10-15 colonies from agar plates into culture tubes containing 2 mL of fresh sterile saline. After the dilution plates were set up, direct suspensions were then diluted in a cuvette containing sterile saline and the optical density was measured at 600 nm. Inocula were diluted such that 75 μL of this culture in Fastidious broth results in a starting bacterial concentration of 5×10^5 CFU/mL when added to the dilution plates. The plates were incubated for ˜24 hours at 36° C. and 5% CO2.

A. baumannii CDC-0033 = assay: microbe, parasite or virus in culture; format: cell-based; conditions: Acinetobacter baumannii, CDC0033, read-out: MIC, A. baumannii CDC-0033
P. aeruginosa CDC-0090 = assay: microbe, parasite or virus in culture; format: cell-based; conditions: Pseudomonas aeruginosa, CDC0090, read-out: Minimum inhibitory concentration, P. aeruginosa CDC-0090

T2 sequence (G3XD46 whole entry): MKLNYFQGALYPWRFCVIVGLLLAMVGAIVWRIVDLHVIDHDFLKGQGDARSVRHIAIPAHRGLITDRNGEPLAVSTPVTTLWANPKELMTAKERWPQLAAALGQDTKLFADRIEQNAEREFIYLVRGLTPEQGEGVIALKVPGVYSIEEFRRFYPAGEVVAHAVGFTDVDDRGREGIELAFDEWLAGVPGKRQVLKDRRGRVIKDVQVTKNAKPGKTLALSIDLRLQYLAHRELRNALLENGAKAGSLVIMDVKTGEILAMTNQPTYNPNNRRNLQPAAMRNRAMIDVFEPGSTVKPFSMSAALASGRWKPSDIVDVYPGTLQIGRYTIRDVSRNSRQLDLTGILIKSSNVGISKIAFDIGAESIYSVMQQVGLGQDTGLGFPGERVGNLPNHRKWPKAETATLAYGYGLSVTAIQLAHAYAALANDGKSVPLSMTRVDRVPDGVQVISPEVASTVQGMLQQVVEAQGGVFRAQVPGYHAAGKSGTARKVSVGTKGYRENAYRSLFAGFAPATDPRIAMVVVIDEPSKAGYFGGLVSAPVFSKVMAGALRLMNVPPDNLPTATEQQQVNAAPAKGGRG
T1 sequence (P0AD68 1-577): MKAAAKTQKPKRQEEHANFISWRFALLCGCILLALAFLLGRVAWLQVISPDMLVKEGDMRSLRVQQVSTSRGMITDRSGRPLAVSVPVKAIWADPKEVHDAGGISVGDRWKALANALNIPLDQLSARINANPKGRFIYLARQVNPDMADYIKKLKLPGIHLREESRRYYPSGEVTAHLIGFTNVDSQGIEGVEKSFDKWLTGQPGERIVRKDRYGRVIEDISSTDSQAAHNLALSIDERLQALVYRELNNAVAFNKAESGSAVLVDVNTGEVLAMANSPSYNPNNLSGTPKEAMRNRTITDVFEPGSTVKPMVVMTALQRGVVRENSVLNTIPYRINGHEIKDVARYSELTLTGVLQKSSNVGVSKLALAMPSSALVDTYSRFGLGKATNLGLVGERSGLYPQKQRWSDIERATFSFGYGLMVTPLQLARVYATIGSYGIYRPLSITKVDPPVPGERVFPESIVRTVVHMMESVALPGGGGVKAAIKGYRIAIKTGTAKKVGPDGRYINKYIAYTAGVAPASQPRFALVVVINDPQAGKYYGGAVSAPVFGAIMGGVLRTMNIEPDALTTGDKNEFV

Structure (SMILES)	MIC [1] [µg/mL]	MIC (P. aeruginosa ATCC 27853) [µg/mL]	MIC (A. baumannii CDC-0083) [µg/mL]	EC50 [2] [µM]	MIC (P. aeruginosa CDC-0095) [µg/mL]	MIC (P. aeruginosa CDC-0110) [µg/mL]	MIC (N. gonorrhoeae WHO X) [µg/mL]	MIC [3] [µg/mL]	MIC (N. gonorrhoeae WHO G) [µg/mL]	MIC [4] [µg/mL]	MIC (P. aeruginosa CDC-0054) [µg/mL]	IC50 [5] [µM]	MIC (N. gonorrhoeae CDC-0197) [µg/mL]	MIC (A. baumannii CDC-0033) [µg/mL]	MIC (P. aeruginosa CDC-0090) [µg/mL]
O=C(NCCCN1CCN(C(=O)N[C@@H](C(=O)N[C@H]2Cc3ccc(F)c(C(=O)O)c3OB2O)c2cc(F)c(O)c(O)c2Cl)C1=O)Nc1cccc(O)c1 [Example 258, (R)-3-((R)-2-(2-chloro-5-fluoro-3,4-dihydroxyphenyl)-2-(3-(3-(3-(3-hydroxyphenyl)ureido)propyl)-2-oxoimidazolidine-1-carboxamido)acetamido)-7-fluoro-2-hydroxy-3,4-dihydro-2H-benzo[e][1,2]oxaborinine-8-carboxylic acid]	< 1	2 to 4 (≈ 2.68 to 5.36 µM)	< 1	< 10	< 1	< 1	> 64	< 1	4 to 8 (≈ 5.36 to 10.7 µM)	4 to 8 (≈ 5.36 to 10.7 µM)	< 1	< 10	16 to 32 (≈ 21.4 to 42.8 µM)	< 1	< 1
O=C(NCCCN1CCN(C(=O)NC(C(=O)N[C@H]2Cc3ccc(F)c(C(=O)O)c3OB2O)c2cc(F)c(O)c(O)c2Cl)C1=O)Nc1cccnc1 (stereo partly drawn) [Example 259, (3R)-3-(2-(2-chloro-5-fluoro-3,4-dihydroxyphenyl)-2-(2-oxo-3-(3-(3-(pyridin-3-yl)ureido)propyl)imidazolidine-1-carboxamido)acetamido)-7-fluoro-2-hydroxy-3,4-dihydro-2H-benzo[e][1,2]oxaborinine-8-carboxylic acid]	< 1	< 1	< 1	< 10	2 to 4 (≈ 2.73 to 5.47 µM)	< 1	> 64	< 1	16 to 32 (≈ 21.9 to 43.7 µM)	16 to 32 (≈ 21.9 to 43.7 µM)	2 to 4 (≈ 2.73 to 5.47 µM)	< 10	16 to 32 (≈ 21.9 to 43.7 µM)	2 to 4 (≈ 2.73 to 5.47 µM)	< 1
O=C(NCCS(=O)(=O)N1CCN(C(=O)NC(C(=O)N[C@H]2Cc3ccc(F)c(C(=O)O)c3OB2O)c2cc(F)c(O)c(O)c2Cl)C1=O)c1cccc(O)c1 (stereo partly drawn) [Example 261, (3R)-3-(2-(2-chloro-5-fluoro-3,4-dihydroxyphenyl)-2-(3-((2-(3-hydroxybenzamido)ethyl)sulfonyl)-2-oxoimidazolidine-1-carboxamido)acetamido)-7-fluoro-2-hydroxy-3,4-dihydro-2H-benzo[e][1,2]oxaborinine-8-carboxylic acid]	2 to 4 (≈ 2.56 to 5.12 µM)	2 to 4 (≈ 2.56 to 5.12 µM)	< 1	< 10	2 to 4 (≈ 2.56 to 5.12 µM)	2 to 4 (≈ 2.56 to 5.12 µM)	> 64	2 to 4 (≈ 2.56 to 5.12 µM)	16 to 32 (≈ 20.5 to 40.9 µM)	16 to 32 (≈ 20.5 to 40.9 µM)	2 to 4 (≈ 2.56 to 5.12 µM)	< 10	16 to 32 (≈ 20.5 to 40.9 µM)	2 to 4 (≈ 2.56 to 5.12 µM)	2 to 4 (≈ 2.56 to 5.12 µM)
O=C(NCCS(=O)(=O)N1CCN(C(=O)NC(C(=O)N[C@H]2Cc3ccc(F)c(C(=O)O)c3OB2O)c2cc(F)c(O)c(O)c2Cl)C1=O)c1cccnc1 (stereo partly drawn) [Example 262, (3R)-3-(2-(2-chloro-5-fluoro-3,4-dihydroxyphenyl)-2-(3-((2-(nicotinamido)ethyl)sulfonyl)-2-oxoimidazolidine-1-carboxamido)acetamido)-7-fluoro-2-hydroxy-3,4-dihydro-2H-benzo[e][1,2]oxaborinine-8-carboxylic acid]	< 1	< 1	< 1	< 10	2 to 4 (≈ 2.61 to 5.22 µM)	< 1	> 64	< 1	16 to 32 (≈ 20.9 to 41.7 µM)	16 to 32 (≈ 20.9 to 41.7 µM)	2 to 4 (≈ 2.61 to 5.22 µM)	< 10	16 to 32 (≈ 20.9 to 41.7 µM)	2 to 4 (≈ 2.61 to 5.22 µM)	< 1
O=C(NCCS(=O)(=O)N1CCN(C(=O)N[C@H](C(=O)N[C@H]2Cc3ccc(F)c(C(=O)O)c3OB2O)c2cc(F)c(O)c(O)c2Cl)C1=O)c1nccs1 [Example 263, (R)-3-((S)-2-(2-chloro-5-fluoro-3,4-dihydroxyphenyl)-2-(2-oxo-3-((2-(thiazole-2-carboxamido)ethyl)sulfonyl)imidazolidine-1-carboxamido)acetamido)-7-fluoro-2-hydroxy-3,4-dihydro-2H-benzo[e][1,2]oxaborinine-8-carboxylic acid]	8 to 16 (≈ 10.4 to 20.7 µM)	32 to 64 (≈ 41.4 to 82.8 µM)	2 to 4 (≈ 2.59 to 5.18 µM)	> 250	> 128	> 128	> 64	8 to 16 (≈ 10.4 to 20.7 µM)	> 64	> 64	8 to 16 (≈ 10.4 to 20.7 µM)	10 to 50	> 64	32 to 64 (≈ 41.4 to 82.8 µM)	32 to 64 (≈ 41.4 to 82.8 µM)
O=C(NCCS(=O)(=O)N1CCN(C(=O)N[C@@H](C(=O)N[C@H]2Cc3ccc(F)c(C(=O)O)c3OB2O)c2cc(F)c(O)c(O)c2Cl)C1=O)c1nccs1 [Example 264, (R)-3-((R)-2-(2-chloro-5-fluoro-3,4-dihydroxyphenyl)-2-(2-oxo-3-((2-(thiazole-2-carboxamido)ethyl)sulfonyl)imidazolidine-1-carboxamido)acetamido)-7-fluoro-2-hydroxy-3,4-dihydro-2H-benzo[e][1,2]oxaborinine-8-carboxylic acid]	2 to 4 (≈ 2.59 to 5.18 µM)	< 1	< 1	< 10	2 to 4 (≈ 2.59 to 5.18 µM)	< 1	> 64	< 1	16 to 32 (≈ 20.7 to 41.4 µM)	16 to 32 (≈ 20.7 to 41.4 µM)	< 1	< 10	16 to 32 (≈ 20.7 to 41.4 µM)	< 1	< 1
O=C(O)c1c(F)ccc2c1OB(O)[C@@H](NC(=O)C(NC(=O)N1CCN(S(=O)(=O)CCNC(=O)[C@@H]3CCCN3)C1=O)c1cc(F)c(O)c(O)c1Cl)C2 (stereo partly drawn) [Example 265, (3R)-3-(2-(2-chloro-5-fluoro-3,4-dihydroxyphenyl)-2-(2-oxo-3-((2-((S)-pyrrolidine-2-carboxamido)ethyl)sulfonyl)imidazolidine-1-carboxamido)acetamido)-7-fluoro-2-hydroxy-3,4-dihydro-2H-benzo[e][1,2]oxaborinine-8-carboxylic acid]	< 1	2 to 4 (≈ 2.64 to 5.27 µM)	< 1	10 to 50	2 to 4 (≈ 2.64 to 5.27 µM)	< 1	> 64	< 1	16 to 32 (≈ 21.1 to 42.2 µM)	16 to 32 (≈ 21.1 to 42.2 µM)	2 to 4 (≈ 2.64 to 5.27 µM)	< 10	16 to 32 (≈ 21.1 to 42.2 µM)	8 to 16 (≈ 10.5 to 21.1 µM)	2 to 4 (≈ 2.64 to 5.27 µM)
O=C(NCCS(=O)(=O)N1CCN(C(=O)NC(C(=O)N[C@H]2Cc3ccc(F)c(C(=O)O)c3OB2O)c2cc(F)c(O)c(O)c2Cl)C1=O)Nc1cccc(O)c1 (stereo partly drawn) [Example 266, (3R)-3-(2-(2-chloro-5-fluoro-3,4-dihydroxyphenyl)-2-(3-((2-(3-(3-hydroxyphenyl)ureido)ethyl)sulfonyl)-2-oxoimidazolidine-1-carboxamido)acetamido)-7-fluoro-2-hydroxy-3,4-dihydro-2H-benzo[e][1,2]oxaborinine-8-carboxylic acid]	8 to 16 (≈ 10 to 20.1 µM)	2 to 4 (≈ 2.51 to 5.02 µM)	< 1	< 10	8 to 16 (≈ 10 to 20.1 µM)	2 to 4 (≈ 2.51 to 5.02 µM)	> 64	2 to 4 (≈ 2.51 to 5.02 µM)	16 to 32 (≈ 20.1 to 40.2 µM)	16 to 32 (≈ 20.1 to 40.2 µM)	2 to 4 (≈ 2.51 to 5.02 µM)	< 10	16 to 32 (≈ 20.1 to 40.2 µM)	2 to 4 (≈ 2.51 to 5.02 µM)	2 to 4 (≈ 2.51 to 5.02 µM)
